This note sets out measurements from patent US7807617B2, “Peptide inhibitors of toxins derived from LL-37” (priority 2003, dated 2010).

In data set [1] the test system is lipoteichoic acid (LTA). In words: LTA neutralization, whole blood (WB) assay. The format is cell-based. The following applies: ±SD, n = 3. The procedure:
(§1) Compounds prepared according to example 1 were tested for their capability to neutralize the bacterial toxin LPS with a limulus amoebocyte lysate (LAL) assay and with a whole blood (WB) assay. LTA neutralization was also measured with a whole blood assay. Peptide LL-37 was used as a positive control. The peptide concentration whereby 50% LPS is neutralized (50% inhibition) was used as a measure of the peptide's activity. These concentration values were as in table 1. The differences between the compounds within each assay were not statistically significant.

Data set [2] has as its system bacterial toxin LPS. Kind of data set: LPS neutralization, limulus amoebocyte lysate (LAL) assay. The following applies: ±SD; for 50%-LPS inhibition, Average: average of LAL-assay and WB-assay. The format is biochemical. The procedure: as §1
For data set [3], the system named is bacterial toxin LPS. In words: LPS neutralization, whole blood (WB) assay. The format is cell-based. The following applies: ±SD. The procedure:
as §1

In data set [4] the test system is peripheral blood mononuclear cells (PBMC). In words: γ-IFN Elispot assay (cytokine secretion). The format is cell-based. The following applies: for γ-IFN Elispot: fraction of positive stimulation indices (positive: >2), PBMC, 48 hours of culture. The procedure:
(§2) The compounds prepared according to example 1 were tested for their therapeutically undesirable immunogenic activity by using Elispot, T-cell proliferation, ERK-activation, and neutrophil chemotaxis assays. The Elispot assay is applicable to determine effects of drugs, chemicals or other compounds on cytokine secretion in vitro, thereby providing data on their putative modulatory effects on immune function in vivo. The results of the assay are given as fraction of positive responses to IFN-gamma. […] Cytokines are direct mediators of inflammation and influence the progress and direction of many immunological reactions. Perturbation of the balance in cytokine production is widely recognized as a critical factor in several disease states. This balance is already disturbed in the case of conditions such as otitis media with effusion and sinusitis. T cell proliferation is also not favorable in this situation, because this will also stimulate the immune response that is already out of control.
(§3) For T cell proliferation, 150,000 peripheral blood mononuclear cells (PBMC) were cultured in the absence or presence of 10 μg/ml of the compounds for 5 days in 96 well round bottom plates (Costar Inc. Cambridge, Mass.) in a final volume of 150 μl IMDM complete. As a positive control, PBMC were cultured in the presence of 25 U/ml recombinant IL-2. During the final 20 hours of culture, PBMC were pulsed with [3H] thymidine (0.5 microCi/well), after which ^3H-incorporation was measured by liquid scintillation counting. For detection of the T cell cytokines IFN and IL-10 by Elispot analysis, 1.5×10^6 PBMC were cultured in 0.5 ml IMDM complete in the absence or presence of various concentrations of synthetic peptide. As a positive control PBMC were stimulated by 10 μg/ml poke weed mitogen (PWM). After 48 hours of culture, PBMC were harvested by gently rinsing the wells with warm IMDM to collect non-adherent cells, which were washed in a large volume of IMDM. PBMC were subsequently plated on antibody-precoated ELISA plates and cultured for 5 hours in IMDM supplemented with 2% pooled human AB serum at 37° C. 5% CO2, after which the plates were developed according to the manufacturer's protocol (U-CyTech, Utrecht, The Netherlands). Spots were counted on an Olympus microscope and analyzed with Olympus Micro Image 4.0 software (Paes Nederland, Zoeterwoude, The Netherlands). The final results are expressed as fraction of positive stimulation indices (positiv: >2).

Data set [5] has the same test system. Kind of data set: T cell proliferation ([3H] thymidine incorporation). The format is cell-based. The following applies: fraction of positive stimulation indices (positive: >2), 10 μg/ml, 5 days. The procedure: as §2, §3
Background: Uptake of a labelled nucleoside into DNA is a usual measure of proliferation.

Data set [6] deals with neutrophils isolated from peripheral blood. Kind of data set: Neutrophil chemotaxis, modified Boyden chamber. The format is cell-based. The following applies: percentage neutrophils on the membrane compared to positive control 10^-8 M FMLP; 90 minutes. The procedure: Neutrophils chemotaxis was measured with neutrophils isolated from peripheral blood using Percoll density centrifugation (density: 1.082 g/ml). The cells were resuspended at a concentration of 2.5×10^6 cells/ml in chemotaxis medium (20 mM N-2-hydroxyethylpiperazine-N′-2-ethanesulfonic acid (HEPES buffer) HEPES, 132 mM NaCl, 6 mM KCl, 1.2 mM KH2PO4, 1 mM MgSO4, 5.5 mM glucose, 0.1 mM CaCl2 and 0.5% (wt/vol) human serum albumin [Central Laboratory of the Netherlands Red Cross Blood Transfusion Service (CLB), Amsterdam, The Netherlands] diluted 1:1 with serum-free RPMI. The chemotactic activity of the compounds was assessed using a modified Boyden Camber technique. Briefly, 26 μl stimuli diluted in HEPES buffer was added to the wells of the lower compartment, and 50 μl of neutrophil suspension (2.5×10^6 cells/ml) was added to the upper compartment. The compartments were separated by two filters: a lower filter with a pore size of 0.45 μm (Millipore Products, Bedford, Mass.) and an upper filter with a pore size of 8 μm (Sartorius Filter, San Francisco, Calif.). After incubation for 90 minutes at 37° C., the upper filters were removed, fixed in ethanol-butanol (80:20, vol/vol), and stained with Weigert solution. To determine neutrophil chemotactic activity, neutrophils were counted in six random high-power fields (×400), and the percentage neutrophils on the membrane as compared to the positive control (10^-8 M N-formylmethionyl-leucyl-phenylalanine (FMLP, Sigma) was calculated.

Data set [7] can be described thus: Skin irritation test. The format is in vivo, rabbit. The following applies: 0.5 ml peptide solution 2 mg/ml on clipped skin for 4 hours, semi-occlusive; observed 1-72 hours. The procedure: (§4) Compound P60.4Ac was prepared according to example 1 and tested for its tolerability in vivo. More specifically, its potential for causing skin and eye irritation was evaluated in rabbits, whereas its ototoxicity was studied in a guinea pig model. Furthermore, its systemic toxicity was assessed after intravenous administration.
(§5) For the skin and eye irritation tests, three rabbits were exposed to 0.5 ml phosphate buffered peptide solution (2 mg/ml), applied onto clipped skin for 4 hours using a semi-occlusive dressing. Observations were made 1, 24, 48, and 72 hours after exposure. Single samples of 0.1 ml of phosphate buffered (pH7.5) peptide solution (2 mg/ml) were instilled into one eye of each of three rabbits to perform an acute eye irritation/corrosion study. Observations were made 1, 24, 48, and 72 hours after instillation.

A short description of data set [8]: Acute eye irritation/corrosion study. The format is in vivo, rabbit. The following applies: 0.1 ml peptide solution 2 mg/ml (pH7.5) instilled into one eye. The procedure:
as §4, §5

The nature of data set [9]: Systemic single and repeated dose toxicity, intravenous. The format is in vivo, rat. The settings on record: rats. The procedure:
as §4
The systemic toxicity of P60.4Ac was assessed in a single and repeated dose toxicity study in rats. The peptide was administered daily intravenously in escalating doses. In this phase, the Maximum Tolerated Dose (MTD) was established. Repeated dose toxicity was also studied in the MTD phase. In the dose escalation phase, 9 rats were divided in three groups and received 0.4, 2 or 8 mg/kg/day for two days. Clinical signs were recorded twice daily on days of dosing and one day after dosing, body weights were recorded prior to the first dose and one day after dosing. In the MTD phase, 5 female and 5 male rats received 8 mg/kg/day for 5 following days. Clinical signs were recorded twice daily on days of dosing, body weight on day 1 and 6. Clinical laboratory investigations were performed prior to necropsy. Macroscopy was performed at termination of the MTD phase.

Data set [10] is described as follows: Ototoxicity, auditory brainstem response (ABR) after round window membrane application. The format is in vivo, guinea pig. The settings on record: for Δ presurgery (ABR threshold change) / ABR treshold (dB): cisplatin 0.66 mg/ml in PBS, P60.4Ac 2 mg/ml in phosphate buffer; for ABR treshold (dB): round window membrane. The procedure: For evaluating the ototoxicity, nine healthy male albino guinea pigs (500-1200 g), free of external ear pathology, were used. Animals were anesthetized with intraperitoneal injections of ketamine 40 mg/kg and rompun 10 mg/kg. After control auditory testing was performed, the auditory bullae were surgically opened to apply a small piece of spongostan to the round window membrane (RWM) and various solutions (approximately 10 μL) were added on the spongostan. The skin was sutured closed and follow-up auditory testing was performed.
The guinea pigs were divided into three groups, each consisting of two animals to be treated and one control animal. Test and control formulations were administered onto the RWM of the right ears, while the left ears remained untreated. […] Group 2 received the peptide (2 mg/ml) in phosphate buffer (pH7.5) and group 3 received the peptide (2 mg/ml) in formulation solution comprising 7% macrogol 10,000 in isotonic sodium chloride solution preserved with 0.02% benzalkonium chloride and 0.1% Na2EDTA, buffered at pH 5.5 with phosphate.
Auditory brainstem response (ABR) was performed prior to drug administration and directly after surgery and 3, 7, 14 and 22 days later, using a computer-based signal averaging system (Tucker-Davis Technology, Alucha, Fla., USA). Guinea pigs were anesthetized and an insert earphone was placed into the external ear canal. […] Ground electrodes were placed over the neck muscles. ABRs were recorded in an electrically shielded, double-walled, radio-frequency-shielded sound chambre in response to 10 ms tone bursts at 1 kHz. Stimulus intensities were measured and expressed as dB. ABR treshold was defined as the lowest intensity capable of eliciting a replicable, visually detectable response. The post-treatment ABR tresholds were compared to pre-treatment ABR tresholds.

Where [11] appears, read: i.v. 0.4, 2 or 8 mg/kg/day for two days.

Where “and” joins values, the source holds several entries; their conditions need not be identical. Equal entries are not always repeated.

The substance “IGKEFKRIVERIKRFLRELVRPLR [Compound P60.4]” displayed a 50%-LTA inh. in data set [1] of 2.0 ± 1.3 µg/mL. Also, in [2], the “50%-LPS inhibition, LAL-assay” value stood at 1.7 ± 0.6 µg/mL and the “50%-LPS inhibition, Average” value worked out at 1.8 ± 0.6 µg/mL. In [3], the “50%-LPS inhibition, WB-assay” value stood at 2.1 ± 0.6 µg/mL. Moreover, the “immune response (summary of table 2)” value in data set [4] (compared with natural peptide LL-37) is on record as “very low immune response”. For the same substance, in data set [4], the “γ-IFN Elispot” value is reported as 3/8. The T cell proliferation in data set [5] was 0/8. In data set [6], the “Chemotaxis (%)” value worked out at 0 ± 0%.
Regarding LL-37 [reference compound], the 50%-LTA inh. in data set [1] was 1.6 ± 0.5 µg/mL. In [2], the “50%-LPS inhibition, LAL-assay” value was 1.3 ± 0.2 µg/mL and the “50%-LPS inhibition, Average” value amounted to 1.3 ± 0.2 µg/mL. The “50%-LPS inhibition, WB-assay” value in data set [3] turned out to be 1.2 ± 0.2 µg/mL. In addition, the “γ-IFN Elispot” value in data set [4] is 4/8. In addition, the T cell proliferation in [5] is reported as 4/8. Moreover, in data set [6], the “Chemotaxis (%)” value is recorded as 84 ± 17%.
On to “IGKEFKRIVQRIKDFLRNLVPRTE [Compound P60.Ac]”, for which the 50%-LTA inh. in data set [1] was found to be 2.1 ± 0.1 µg/mL. Besides, in data set [2], the “50%-LPS inhibition, LAL-assay” value was 1.8 ± 0.8 µg/mL and the “50%-LPS inhibition, Average” value came out at 2.0 ± 0.8 µg/mL. In [3], the “50%-LPS inhibition, WB-assay” value is 2.4 ± 0.5 µg/mL. Further, the “γ-IFN Elispot” value in [4] is on record as 3/8. For the same substance, the T cell proliferation in [5] is 0/8. For the same substance, in [6], the “Chemotaxis (%)” value came to 61 ± 36%.
In turn, IGKEFKRIVQRIKDFLRNLVPRTE [Compound P60] had a 50%-LTA inh. in [1] of 2.1 ± 0.7 µg/mL. Moreover, in [2], the “50%-LPS inhibition, LAL-assay” value worked out at 1.5 ± 0.5 µg/mL and the “50%-LPS inhibition, Average” value worked out at 1.5 ± 0.3 µg/mL. Besides, in data set [3], the “50%-LPS inhibition, WB-assay” value came to 1.4 ± 0.1 µg/mL. The “γ-IFN Elispot” value in data set [4] was 1/8. Besides, the T cell proliferation in data set [5] is 0/8. Further, in data set [6], the “Chemotaxis (%)” value was found to be 76 ± 39%.
In the case of “Ac-IGKEFKRIVERIKRFLRELVRPLR-NH2 [Compound P60.4Ac]”, the skin irritation result in data set [7] is “no skin irritation was detectable”. Further, the “redness of the conjunctivae, time to complete resolution after instillation” value in data set [8] was at most 24 h. Besides, the “clinical signs, body weight, hematology, clinical biochemistry and macroscopic examination, MTD phase” value in data set [9] (i.v. 8 mg/kg/day for 5 days) is given as “no clear peptide related findings”. In data set [9] (i.v. 8 mg/kg/day for 5 days), the “mortality, MTD phase” value was “no mortality occurred”. Besides, in data set [9] (setting [11]), the “clinical signs and body weight, dose escalation phase” value is listed as “no clear deviations”. Besides, the “mortality, dose escalation phase” value in [9] (setting [11]) was “no mortality occurred”. The “Δ presurgery (ABR threshold change)” value is listed as −2 dB in data set [10] (3 days); 0 dB in [10] (7 days); −12 dB in data set [10] (14 days); −7 dB in data set [10] (22 days after surgery); −2 dB in data set [10] (postsurgery). Moreover, the “ABR treshold (dB)” value turned out to be 70 dB in [10] (3 days); 72 dB in data set [10] (7 days); 60 dB in data set [10] (14 days); 65 dB in [10] (22 days); 70 dB in data set [10] (postsurgery, 1 kHz, one animal per column). For the same substance, the ABR threshold change in data set [10] (peptide 2 mg/ml in formulation solution (7% macrogol 10,000, isotonic NaCl, benzalkonium chloride, Na2EDTA, pH 5.5), two animals) was 2 dB and 1 dB.
